The record followed here is ChEMBL document CHEMBL1155461, “Emerging targets in osteoporosis disease modification” (J Med Chem, 2010).

Data set [1] relates to Rattus norvegicus. Put plainly: Induction of bone formation in ovariectomized rat assessed as increase in bone mineralizing surface area at 30 mg/kg, po after 28 days (RVb = 30.4%). In kind it is functional.
Data set [2] has as its system Rattus norvegicus. Put plainly: Induction of bone formation in ovariectomized rat assessed as bone mineral apposition rate per day at 30 mg/kg, po after 28 days (RVb = 1.43 uM). Format: functional.
Data set [3] deals with MC3T3-E1. In words: Induction of osteogenesis in mouse MC3T3-E1 cells assessed as increase in osteoblast differentiation-associated collagen synthesis at 0.03 uM. In kind it is functional.
Data set [4] relates to MC3T3-E1. Put plainly: Induction of osteogenesis in mouse MC3T3-E1 cells assessed as increase in osteoblast differentiation-associated ALP level at 0.03 uM. In kind it is functional.
Data set [5] concerns MC3T3-E1. In words: Induction of osteogenesis in mouse MC3T3-E1 cells assessed as increase in bone mineralization at 0.03 uM. In kind it is functional.
Data set [6] concerns the target T1, Extracellular calcium-sensing receptor (Homo sapiens, UniProt P41180).
T1 sequence (P41180 whole entry): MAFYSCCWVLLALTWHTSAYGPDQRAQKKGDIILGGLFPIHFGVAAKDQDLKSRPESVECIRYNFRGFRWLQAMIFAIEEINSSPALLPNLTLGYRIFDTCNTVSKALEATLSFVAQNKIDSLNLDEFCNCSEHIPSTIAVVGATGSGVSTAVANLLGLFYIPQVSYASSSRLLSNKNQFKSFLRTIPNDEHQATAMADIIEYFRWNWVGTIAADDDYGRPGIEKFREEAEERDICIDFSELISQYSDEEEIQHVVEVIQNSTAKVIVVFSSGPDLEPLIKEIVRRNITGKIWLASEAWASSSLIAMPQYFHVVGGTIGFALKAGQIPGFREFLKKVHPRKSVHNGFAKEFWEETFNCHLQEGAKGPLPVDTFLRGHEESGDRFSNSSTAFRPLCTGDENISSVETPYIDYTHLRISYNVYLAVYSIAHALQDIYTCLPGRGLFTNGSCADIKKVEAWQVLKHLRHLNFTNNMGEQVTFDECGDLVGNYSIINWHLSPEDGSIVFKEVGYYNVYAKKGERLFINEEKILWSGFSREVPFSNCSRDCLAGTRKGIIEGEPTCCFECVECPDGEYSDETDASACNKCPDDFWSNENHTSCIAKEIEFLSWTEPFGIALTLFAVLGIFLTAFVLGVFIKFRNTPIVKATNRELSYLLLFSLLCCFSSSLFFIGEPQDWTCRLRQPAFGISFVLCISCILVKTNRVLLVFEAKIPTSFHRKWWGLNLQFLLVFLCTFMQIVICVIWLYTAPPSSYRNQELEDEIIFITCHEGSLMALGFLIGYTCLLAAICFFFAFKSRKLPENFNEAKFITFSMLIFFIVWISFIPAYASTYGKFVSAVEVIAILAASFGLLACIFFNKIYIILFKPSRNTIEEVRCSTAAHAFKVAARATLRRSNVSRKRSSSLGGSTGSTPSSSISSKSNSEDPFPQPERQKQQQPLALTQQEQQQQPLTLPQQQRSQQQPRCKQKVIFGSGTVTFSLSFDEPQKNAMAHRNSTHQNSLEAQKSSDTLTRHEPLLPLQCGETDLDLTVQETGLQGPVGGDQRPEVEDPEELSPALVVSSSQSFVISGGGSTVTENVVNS

A short description of data set [7]: Clearance in rat. Format: ADME, organism-based. Particulars: in vivo.
The nature of data set [8]: Selectivity for cathepsin K over cathepsin S.
Data set [9] in a line: Selectivity for cathepsin K over cathepsin B.
Data set [10] in a line: Selectivity for cathepsin K over cathepsin L.
In a further data set the target is Cannabinoid receptor 1 (Homo sapiens, UniProt P21554).
The subject of data set [11] is Rattus norvegicus. In words: Induction of bone formation in ovariectomized rat assessed as increase in total bone mineral content at 1 mg/kg, sc administered daily for 6 weeks relative to control. In kind it is functional. To be noted: route subcutaneous.
Data set [12] addresses Prostaglandin E2 receptor EP1 subtype (Homo sapiens, UniProt P34995). Put plainly: Binding affinity to EP1 receptor.
Data set [13] relates to Osteoclast. In words: Inhibition of osteoclastogenesis in RANKL-stimulated mouse osteoclast at 10 uM. In kind it is functional.
The test system of data set [14] is Osteoclast. In words: Inhibition of osteoclastogenesis in RANKL-stimulated mouse osteoclast at 20 uM. Format: functional.
For data set [15], the system named is Osteoclast. In words: Inhibition of osteoclastogenesis in RANKL/M-CSF-stimulated osteoclast. In kind it is functional, cell-based.
Data set [16] is described as follows: Clearance in po dosed rat. Format: ADME, organism-based. To be noted: in vivo.
A short description of data set [17]: Half life in po dosed rat. Format: ADME, organism-based. To be noted: in vivo.
Data set [18] concerns the target Cathepsin K (Homo sapiens, UniProt P43235).
Target sequence in this assay (P43235 whole entry): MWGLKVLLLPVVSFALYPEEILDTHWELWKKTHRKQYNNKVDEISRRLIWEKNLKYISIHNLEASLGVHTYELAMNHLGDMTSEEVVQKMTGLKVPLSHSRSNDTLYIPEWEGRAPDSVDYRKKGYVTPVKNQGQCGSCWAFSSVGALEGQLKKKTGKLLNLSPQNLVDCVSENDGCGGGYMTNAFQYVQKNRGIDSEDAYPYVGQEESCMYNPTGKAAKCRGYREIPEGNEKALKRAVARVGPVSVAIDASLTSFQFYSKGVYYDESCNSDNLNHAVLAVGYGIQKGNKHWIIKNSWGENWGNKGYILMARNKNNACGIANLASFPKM
In data set [19] the test system is MC3T3-E1. Put plainly: Induction of osteogenesis in mouse MC3T3-E1 cells assessed as increase in bone mineralization at 1 uM. Format: functional.
In data set [20] the test system is MC3T3-E1. Put plainly: Induction of osteogenesis in mouse MC3T3-E1 cells assessed as increase in osteoblast differentiation-associated ALP level at 0.01 uM. In kind it is functional.
A short description of data set [21]: Selectivity for integrin alphaVbeta3 over integrin alphaVbeta5.
A further data set addresses Integrin alpha-V/beta-3 (Homo sapiens, UniProt P05106+P06756).
The nature of data set [22]: Selectivity for cathepsin K over cathepsin H.
Data set [23] can be described thus: Selectivity for cathepsin K over cathepsin V.
In data set [24] the target is Cathepsin K (Homo sapiens, UniProt P43235). Put plainly: Inhibition of humanized rabbit cathepsin K.
Data set [25] in a line: Selectivity for cathepsin K over cathepsin F.

SMILES strings stand for the structures. Where only a bound is given, the exact number is not on record here.

Chain of Prostaglandin E2 receptor EP1 subtype (P34995 whole entry): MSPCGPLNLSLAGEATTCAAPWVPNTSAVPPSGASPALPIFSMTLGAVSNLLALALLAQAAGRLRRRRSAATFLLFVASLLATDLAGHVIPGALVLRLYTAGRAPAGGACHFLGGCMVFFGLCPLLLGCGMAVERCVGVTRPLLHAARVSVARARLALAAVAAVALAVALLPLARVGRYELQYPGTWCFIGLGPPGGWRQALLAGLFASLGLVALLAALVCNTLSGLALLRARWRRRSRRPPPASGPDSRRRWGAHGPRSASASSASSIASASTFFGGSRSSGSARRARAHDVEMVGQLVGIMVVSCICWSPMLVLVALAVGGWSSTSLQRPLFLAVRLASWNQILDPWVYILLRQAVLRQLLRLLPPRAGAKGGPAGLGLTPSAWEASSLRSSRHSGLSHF
Chain of Integrin alpha-V/beta-3 (P05106 27-788 limits assumed): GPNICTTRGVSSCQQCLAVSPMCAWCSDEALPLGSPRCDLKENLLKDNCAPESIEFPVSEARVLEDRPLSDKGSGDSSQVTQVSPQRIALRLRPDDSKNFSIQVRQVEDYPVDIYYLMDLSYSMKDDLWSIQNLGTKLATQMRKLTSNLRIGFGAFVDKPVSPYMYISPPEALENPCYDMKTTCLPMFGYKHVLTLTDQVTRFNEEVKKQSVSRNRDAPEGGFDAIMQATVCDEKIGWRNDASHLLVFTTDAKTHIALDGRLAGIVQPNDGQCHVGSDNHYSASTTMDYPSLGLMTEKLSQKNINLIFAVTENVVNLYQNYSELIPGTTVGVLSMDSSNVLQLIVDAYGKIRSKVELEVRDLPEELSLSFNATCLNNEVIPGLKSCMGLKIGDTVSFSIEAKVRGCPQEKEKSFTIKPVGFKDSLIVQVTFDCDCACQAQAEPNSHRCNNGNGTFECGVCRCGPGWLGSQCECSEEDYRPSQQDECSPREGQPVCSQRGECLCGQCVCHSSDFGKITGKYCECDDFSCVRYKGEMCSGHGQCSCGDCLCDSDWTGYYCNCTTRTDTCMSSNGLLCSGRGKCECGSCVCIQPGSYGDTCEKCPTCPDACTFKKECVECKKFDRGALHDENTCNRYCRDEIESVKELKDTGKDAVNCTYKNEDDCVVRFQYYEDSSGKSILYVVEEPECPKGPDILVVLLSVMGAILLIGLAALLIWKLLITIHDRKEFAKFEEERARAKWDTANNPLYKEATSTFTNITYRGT
Chain of Integrin alpha-V/beta-3 (P06756 31-889 limits assumed): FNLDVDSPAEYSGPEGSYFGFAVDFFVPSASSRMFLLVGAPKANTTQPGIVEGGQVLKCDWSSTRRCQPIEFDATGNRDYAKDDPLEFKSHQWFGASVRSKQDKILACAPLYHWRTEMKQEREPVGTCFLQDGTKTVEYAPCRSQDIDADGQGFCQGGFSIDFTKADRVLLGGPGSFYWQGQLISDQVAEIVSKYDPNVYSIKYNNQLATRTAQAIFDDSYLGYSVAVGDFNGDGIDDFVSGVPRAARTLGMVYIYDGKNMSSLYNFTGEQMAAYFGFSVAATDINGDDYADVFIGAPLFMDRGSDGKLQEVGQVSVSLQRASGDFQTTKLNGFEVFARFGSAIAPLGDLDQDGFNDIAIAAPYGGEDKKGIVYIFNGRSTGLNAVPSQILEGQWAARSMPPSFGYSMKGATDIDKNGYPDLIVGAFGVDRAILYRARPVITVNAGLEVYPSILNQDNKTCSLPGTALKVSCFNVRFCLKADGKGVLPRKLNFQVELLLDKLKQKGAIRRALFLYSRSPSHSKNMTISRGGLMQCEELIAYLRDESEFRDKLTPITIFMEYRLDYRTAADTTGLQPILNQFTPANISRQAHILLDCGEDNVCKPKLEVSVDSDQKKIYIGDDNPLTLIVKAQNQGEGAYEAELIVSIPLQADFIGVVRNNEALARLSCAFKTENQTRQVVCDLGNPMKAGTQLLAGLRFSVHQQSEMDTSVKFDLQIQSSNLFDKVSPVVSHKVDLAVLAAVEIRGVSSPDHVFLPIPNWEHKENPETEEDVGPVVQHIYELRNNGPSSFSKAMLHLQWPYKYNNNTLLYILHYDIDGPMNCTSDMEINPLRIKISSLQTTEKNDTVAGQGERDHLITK
Chain of Integrin alpha-V/beta-3 (P06756 891-1048 limits assumed): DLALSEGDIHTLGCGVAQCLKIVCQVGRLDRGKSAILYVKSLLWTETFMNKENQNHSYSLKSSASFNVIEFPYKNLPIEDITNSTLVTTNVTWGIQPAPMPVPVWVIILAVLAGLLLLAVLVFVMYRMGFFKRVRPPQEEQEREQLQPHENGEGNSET
Chain of Cannabinoid receptor 1 (P21554 whole entry): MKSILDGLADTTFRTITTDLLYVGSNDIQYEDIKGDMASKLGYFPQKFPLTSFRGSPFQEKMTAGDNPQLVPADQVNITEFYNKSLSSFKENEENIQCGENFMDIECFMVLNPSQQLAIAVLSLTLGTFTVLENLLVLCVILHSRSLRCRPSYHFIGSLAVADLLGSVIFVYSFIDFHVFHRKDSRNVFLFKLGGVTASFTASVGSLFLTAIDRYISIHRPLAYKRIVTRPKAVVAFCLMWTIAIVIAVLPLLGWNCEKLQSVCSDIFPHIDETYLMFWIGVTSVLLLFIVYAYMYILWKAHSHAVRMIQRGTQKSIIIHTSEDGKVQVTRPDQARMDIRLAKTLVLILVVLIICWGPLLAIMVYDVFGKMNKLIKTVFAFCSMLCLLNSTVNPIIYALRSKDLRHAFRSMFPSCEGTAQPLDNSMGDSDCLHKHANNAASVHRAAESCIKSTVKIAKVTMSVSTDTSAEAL

As to `CN(c1ccccc1CNc1nc(Nc2ccc3c(c2)CC(=O)N3)ncc1C(F)(F)F)S(C)(=O)=O`, in the data set on Rattus norvegicus [1], the Activity is on record as 40.6%. In addition, the mineral apposition rate with Rattus norvegicus [2] stood at 1.96 µm/day.
For `COc1cc([C@H]2OC[C@H](Cc3cc(OC)c(O[C@@H]4O[C@H](CO)[C@@H](O)[C@H](O)[C@H]4O)c(OC)c3)[C@@H]2CO)cc(OC)c1O` [MANGLIESIDE E], the results for the Activity in the data set on MC3T3-E1 [3], in the data set on MC3T3-E1 [4] and with MC3T3-E1 [5] were 118%, 112% and 109%, respectively.
In the case of `CC(C)(CC1Cc2ccccc2C1)NC[C@@H](O)COc1cc(CCC(=O)O)ccc1C#N` [SB-423562], in data set [6], the IC50 amounted to 73 nM. The same compound gave a clearance in data set [7] of 89 mL/min/kg.
As to `CC(C)CNc1nc(C#N)nc(N2CCOCC2)c1N`, the Selectivity ratio in data set [8] is 31; in [9] it was more than 556; in data set [10], 111.
`CCCCCCC(C)(C)c1cc(OC)c([C@H]2C=C(CO)[C@@H]3C[C@H]2C3(C)C)c(OC)c1` displayed a Ki at Cannabinoid receptor 1 not below 10000 nM.
On to `CCOC(=O)CCc1ccc(C#N)c(OC[C@H](O)CNC(C)(C)CC2Cc3ccccc3C2)c1`, for which, in [6], the concentration for half-maximal inhibition (IC50) was determined as 520 nM.
As for `CCCCC[C@H](O)/C=C/[C@H]1[C@H](O)CC(=O)[C@@H]1C/C=C\CCCC(=O)O` [DINOPROSTONE], the Activity with Rattus norvegicus [11] stood at 20.6%. Besides, in data set [12], the IC50 came out at 1.1 nM.
Consider `O=C(O[C@@H]1Cc2c(O)cc(O)cc2O[C@@H]1c1cc(O)c(O)c(O)c1)c1cc(O)c(O)c(O)c1` [EPIGALOCATECHIN GALLATE], for which the inhibition at 10 µM with Osteoclast [13] came to 17%. Further, 20 µM produced 32% inhibition with Osteoclast [14].
For the compound `CC1(C)C(=O)CC[C@]2(C)[C@@H]1CC[C@@]13CC4[C@@H](C[C@H]12)[C@]4(C(=O)O)C3`, in the data set on Osteoclast [15], the IC50 worked out at 4000 nM.
`O=C(O)c1ccc(CCCN2C(=O)CC[C@@H]2CC[C@@H](O)Cc2cccc(C(F)(F)F)c2)s1` returned an apparent clearance (CL/F) in data set [16] of 70 mL/min/kg. In addition, the half-life in data set [17] was 12 min.
Regarding `CN1CCN(c2nc(-c3ccc(C(=O)NC4(C(=O)N[C@@H]5C(=O)N[C@@H]5Oc5ccccc5)CCCCC4)cc3)cs2)CC1`, the Selectivity ratio in data set [8] was determined as 3540; in data set [9], 71; in data set [10], 500. At Cathepsin K [18], this compound registered an inhibitory constant (Ki) of 4.8 nM.
For the compound `COc1cc2c(O)c3c(O)c(OC)c(O[C@@H]4O[C@H](CO)[C@@H](O)[C@H](O)[C@H]4O)cc3c(O)c2c(O)c1OC`, the Activity was 115% in the data set on MC3T3-E1 [19] and 135% in the data set with MC3T3-E1 [20].
Regarding `CC(C)(C)OC(=O)[C@@H]1C[C@H](CC(=O)O)[C@H]2CC[C@H](NC(=O)[C@@H](N)CCCNC(=N)N)C(=O)N21`, the Selectivity ratio in data set [21] stood at 3.5. The compound also showed an IC50 against Integrin alpha-V/beta-3 of 304 nM.
On to `CS(=O)(=O)c1ccc(-c2cn(CC(F)(F)F)nc2[C@@H]2CCC(Cl)(Cl)C[C@H]2C(=O)NC2(C#N)CC2)cc1`, for which the Selectivity ratio is more than 140000 in [22]; 4300 in [8]; more than 16000 in data set [9]; 1100 in data set [23]; 4700 in [10]; 110 in data set [25]. In addition, half-maximal inhibition against Cathepsin K [24] (IC50) was put at 0.62 nM.
